# In US5068247A, “2-aminopentanoic acid compounds and their use as immunosuppressants” (priority 1989, dated 1991):
# Assays:
# [1] = test system: IL-2 response of mouse thymocytes; experiment: suppression of the IL-2 response of mouse thymocytes; assay type: cell-based; conditions: for inhibition at 0.0001 µg/mL / inhibition at 0.001 µg/mL / inhibition at 0.01 µg/mL / inhibition at 0.1 µg/mL / inhibition at 1 µg/mL: Mus musculus, Thymocyte, 72 h
# Experimental: (§1) The thymus was resected from 6-week-old male C3H/HeN mice, and a single cell suspension was prepared using the serum-free RPMI1640 culture medium. After washing three times, the cell suspension was adjusted to a concentration of 1.5×10^7 cells/ml in the RPMI1640 culture medium supplemented with 10^-4 M 2-mercaptoethanol and 20% FCS. […] After culturing the suspension for further 18 hours, the cells were harvested by a cell harvester, and the radioactivity incorporated into the cells was measured by a liquid scintillation counter, which was used as an index of IL-1, IL-2 or IL-4 response. The suppression of IL-1, IL-2 or IL-4 response was evaluated by calculating the percent suppression by the following formula. [formula]
# [2] = test system: mouse acute graft versus host reaction (GVHR); experiment: suppression of mouse acute graft versus host reaction (GVHR); assay type: in vivo
# Experimental: C57BL/6 mouse spleen cell suspension (2×10^7 cells/mouse) was injected into the right hind footpad of 5- to 7-week-old BDF1 female mice. Seven days after injection, right popliteal lymph node was resected to measure the weight thereof and compare the weight with that of the left popliteal lymph node of the control mice injected with physiological saline, which was used as an index of acute graft versus host reaction (GVHR). The compound of Example 5 was administered intraperitoneally at the dose of 0.3 mg/kg, orally at the dose of 1 mg/kg and intramuscularly at the doses of 0.3 and 1 mg/kg for 6 days from the day of injection, and at the seventh day, the weight of the right poples lymphonodus was measured.
# [3] = test system: IL-4 response of mouse thymocytes; experiment: suppression of the IL-4 response of mouse thymocytes; assay type: cell-based; conditions: for inhibition at 0.0001 µg/mL / inhibition at 0.001 µg/mL / inhibition at 0.01 µg/mL / inhibition at 0.1 µg/mL / inhibition at 1 µg/mL: Mus musculus, Thymocyte, 72 h
# Experimental: as §1
# [4] = test system: IL-1 response of mouse thymocytes; experiment: suppression of the IL-1 response of mouse thymocytes; assay type: cell-based; conditions: IL-1 50 U/ml
# Experimental: The thymus was resected from 6-week-old male C3H/HeN mice, and a single cell suspension was prepared using the serum-free RPMI1640 culture medium. After washing three times, the cell suspension was adjusted to a concentration of 1.5×10^7 cells/ml in the RPMI1640 culture medium supplemented with 10^-4 M 2-mercaptoethanol and 20% FCS. […] After termination of culture, 18.5 KBq/well of ^3 H-thymidine was added thereto. After culturing the suspension for further 18 hours, the cells were harvested by a cell harvester, and the radioactivity incorporated into the cells was measured by a liquid scintillation counter, which was used as an index of IL-1, IL-2 or IL-4 response. The suppression of IL-1, IL-2 or IL-4 response was evaluated by calculating the percent suppression by the following formula. [formula]
# [5] = test system: anti-sheep red blood cell antibody production; experiment: suppression of mouse anti-sheep red blood cell antibody production; assay type: in vivo; conditions: for Body weight at 4 days later / Body weight on immunized day / Number of PFC per 1 × 10^7 cell / Number of PFC per spleen / Number of spleen cells / Suppression of number of PFC per 1 × 10^7 cell / Suppression of number of PFC per spleen / Wet weight of spleen / Wet weight of thymus: 4 days
# Experimental: Male 5- to 7-week-old BALB/c mice were immunized with sheep red blood cells (5×10^7 cells/mouse, intravenous administration), and the test substance was administered intraperitoneally at the dose of 3 to 10 mg/kg/day for 4 consecutive days from the day of immunization. Four days after immunization, the spleen was resected, and suppression of anti-sheep red blood cell antibody production was examined by counting the number of plaque-forming cells (PFC) by direct plaque method using sheep red blood cells and guinea pig complement. At the same time, the body weight of the mouse, wet weight of the thymus and the spleen, and the number of spleen cells were also determined.
smiles,measurement,setting,value
CCCCCCCCCCCCC/C=C/C[C@@H](O)[C@H](O)[C@@](N)(CO)C(=O)O [Example 5],3H-thymidine uptake,"[1]; 0.0001 μg/ml, IL-2 10 U/ml",2810 cpm
same,3H-thymidine uptake,"[1]; 0.0001 μg/ml, IL-2 50 U/ml",63715 cpm
same,3H-thymidine uptake,"[1]; 0.001 μg/ml, IL-2 10 U/ml",1660 cpm
same,3H-thymidine uptake,"[1]; 0.001 μg/ml, IL-2 50 U/ml",57600 cpm
same,3H-thymidine uptake,"[1]; 0.01 μg/ml, IL-2 10 U/ml",1285 cpm
same,3H-thymidine uptake,"[1]; 0.01 μg/ml, IL-2 50 U/ml",32955 cpm
same,3H-thymidine uptake,"[1]; 0.1 μg/ml, IL-2 10 U/ml",1125 cpm
same,3H-thymidine uptake,"[1]; 0.1 μg/ml, IL-2 50 U/ml",24600 cpm
same,3H-thymidine uptake,"[1]; 1 μg/ml, IL-2 10 U/ml",1300 cpm
same,3H-thymidine uptake,"[1]; 1 μg/ml, IL-2 50 U/ml",25525 cpm
same,inhibition at 0.0001 µg/mL,"[1]; 0.0001 μg/ml, IL-2 10 U/ml",0%
same,inhibition at 0.0001 µg/mL,"[1]; 0.0001 μg/ml, IL-2 50 U/ml",0%
same,inhibition at 0.001 µg/mL,"[1]; 0.001 μg/ml, IL-2 10 U/ml",46.7%
same,inhibition at 0.001 µg/mL,"[1]; 0.001 μg/ml, IL-2 50 U/ml",4.5%
same,inhibition at 0.01 µg/mL,"[1]; 0.01 μg/ml, IL-2 10 U/ml",62.1%
same,inhibition at 0.1 µg/mL,"[1]; 0.1 μg/ml, IL-2 10 U/ml",68.6%
same,inhibition at 0.1 µg/mL,"[1]; 0.1 μg/ml, IL-2 50 U/ml",59.4%
same,inhibition at 1 µg/mL,"[1]; 1 μg/ml, IL-2 10 U/ml",61.5%
same,inhibition at 1 µg/mL,"[1]; 1 μg/ml, IL-2 50 U/ml",58%
same,inhibition at 0.01 µg/mL,"[1]; 0.01 μg/ml, IL-2 50 U/ml",45.5%
same,Body weight 7 days after injection,[2]; 0.3 mg/kg/day im × 6,20.0 ± 0.7 g
same,Popliteal lymph node weight,[2]; 0.3 mg/kg/day im × 6,2.88 ± 0.58 mg
same,Suppression,[2]; 0.3 mg/kg/day im × 6,60.0%
same,Body weight 7 days after injection,[2]; 0.3 mg/kg/day ip × 6,19.0 ± 2.2 g
same,Popliteal lymph node weight,[2]; 0.3 mg/kg/day ip × 6,4.46 ± 1.72 mg
same,Suppression,[2]; 0.3 mg/kg/day ip × 6,38.1%
same,Body weight 7 days after injection,[2]; 1 mg/kg/day im × 6,18.8 ± 1.3 g
same,Popliteal lymph node weight,[2]; 1 mg/kg/day im × 6,2.28 ± 0.48 mg
same,Suppression,[2]; 1 mg/kg/day im × 6,68.3%
same,Body weight 7 days after injection,[2]; 1 mg/kg/day po × 6,20.4 ± 0.6 g
same,Popliteal lymph node weight,[2]; 1 mg/kg/day po × 6,3.30 ± 0.64 mg
same,Suppression,[2]; 1 mg/kg/day po × 6,54.2%
same,mouse acute graft versus host reaction (in words),"[2]; intraperitoneal, oral or intramuscular",strongly suppresses the mouse acute graft versus host reaction (GVHR)
same,3H-thymidine uptake,"[3]; 0.0001 μg/ml, IL-4 50 U/ml",3190 cpm
same,3H-thymidine uptake,"[3]; 0.0001 μg/ml, IL-4 250 U/ml",45895 cpm
same,3H-thymidine uptake,"[3]; 0.001 μg/ml, IL-4 50 U/ml",2025 cpm
same,3H-thymidine uptake,"[3]; 0.001 μg/ml, IL-4 250 U/ml",39150 cpm
same,3H-thymidine uptake,"[3]; 0.01 μg/ml, IL-4 50 U/ml",1385 cpm
same,3H-thymidine uptake,"[3]; 0.01 μg/ml, IL-4 250 U/ml",33515 cpm
same,3H-thymidine uptake,"[3]; 0.1 μg/ml, IL-4 50 U/ml",815 cpm
same,3H-thymidine uptake,"[3]; 0.1 μg/ml, IL-4 250 U/ml",24655 cpm
same,3H-thymidine uptake,"[3]; 1 μg/ml, IL-4 50 U/ml",885 cpm
same,3H-thymidine uptake,"[3]; 1 μg/ml, IL-4 250 U/ml",21250 cpm
same,inhibition at 0.0001 µg/mL,"[3]; 0.0001 μg/ml, IL-4 50 U/ml",0%
same,inhibition at 0.0001 µg/mL,"[3]; 0.0001 μg/ml, IL-4 250 U/ml",13.1%
same,inhibition at 0.001 µg/mL,"[3]; 0.001 μg/ml, IL-4 50 U/ml",8%
same,inhibition at 0.001 µg/mL,"[3]; 0.001 μg/ml, IL-4 250 U/ml",26%
same,inhibition at 0.01 µg/mL,"[3]; 0.01 μg/ml, IL-4 50 U/ml",40.6%
same,inhibition at 0.01 µg/mL,"[3]; 0.01 μg/ml, IL-4 250 U/ml",36.8%
same,inhibition at 0.1 µg/mL,"[3]; 0.1 μg/ml, IL-4 50 U/ml",69.7%
same,inhibition at 1 µg/mL,"[3]; 1 μg/ml, IL-4 50 U/ml",66.2%
same,inhibition at 1 µg/mL,"[3]; 1 μg/ml, IL-4 250 U/ml",60.2%
same,inhibition at 0.1 µg/mL,"[3]; 0.1 μg/ml, IL-4 250 U/ml",46.3%
same,3H-thymidine uptake,[4]; 0.0001 μg/ml,10320 ± 1490 cpm
same,3H-thymidine uptake,[4]; 0.001 μg/ml,7756 ± 686 cpm
same,3H-thymidine uptake,[4]; 0.01 μg/ml,1239 ± 548 cpm
same,3H-thymidine uptake,[4]; 0.1 μg/ml,595 ± 144 cpm
same,3H-thymidine uptake,[4]; 1 μg/ml,419 ± 36 cpm
same,inhibition at 0.0001 µg/mL,"[4]; Mus musculus, Thymocyte, 72 h, 0.0001 μg/ml",11.3%
same,inhibition at 0.001 µg/mL,"[4]; Mus musculus, Thymocyte, 72 h, 0.001 μg/ml",33.7%
same,inhibition at 0.01 µg/mL,"[4]; Mus musculus, Thymocyte, 72 h, 0.01 μg/ml",90.7%
same,inhibition at 0.1 µg/mL,"[4]; Mus musculus, Thymocyte, 72 h, 0.1 μg/ml",96.3%
same,inhibition at 1 µg/mL,"[4]; Mus musculus, Thymocyte, 72 h, 1 μg/ml",97.8%
CCCCCCCCCCCCCCCC[C@@H](O)[C@H](O)[C@@](N)(CO)C(=O)O [Example 2],Body weight at 4 days later,[5]; 3 mg/kg/day ip,24 ± 1 g
same,Body weight on immunized day,[5]; 3 mg/kg/day ip,22 ± 1 g
same,Number of PFC per 1 × 10^7 cell,[5]; 3 mg/kg/day ip,5.5 ± 0.8 × 10^3 /1 × 10^7 cell
same,Number of PFC per spleen,[5]; 3 mg/kg/day ip,17.9 ± 3.6 × 10^4 /spleen
same,Number of spleen cells,[5]; 3 mg/kg/day ip,3.3 ± 0.5 × 10^8 cell
same,Suppression of number of PFC per 1 × 10^7 cell,[5]; 3 mg/kg/day ip,36.8%
same,Suppression of number of PFC per spleen,[5]; 3 mg/kg/day ip,23.2%
same,Wet weight of spleen,[5]; 3 mg/kg/day ip,58 ± 11 mg
same,Wet weight of thymus,[5]; 3 mg/kg/day ip,318 ± 42 mg
same,Body weight at 4 days later,[5]; 10 mg/kg/day ip,23 ± 1 g
same,Body weight on immunized day,[5]; 10 mg/kg/day ip,22 ± 1 g
same,Number of PFC per 1 × 10^7 cell,[5]; 10 mg/kg/day ip,4.0 ± 2.0 × 10^3 /1 × 10^7 cell
same,Number of PFC per spleen,[5]; 10 mg/kg/day ip,10.2 ± 5.5 × 10^4 /spleen
same,Number of spleen cells,[5]; 10 mg/kg/day ip,2.5 ± 0.2 × 10^8 cell
same,Suppression of number of PFC per 1 × 10^7 cell,[5]; 10 mg/kg/day ip,54.9%
same,Suppression of number of PFC per spleen,[5]; 10 mg/kg/day ip,56.2%
same,Wet weight of spleen,[5]; 10 mg/kg/day ip,58 ± 10 mg
same,Wet weight of thymus,[5]; 10 mg/kg/day ip,233 ± 25 mg
same,effect on anti-sheep red blood cell antibody production (in words),[5]; ip,exhibits suppressive effect on anti-sheep red blood cell antibody production
